Experimental data from US5723625A, “Process for the production of specific isomer mixtures from oxindole alkaloids” (Immodal Pharmaka Gesellschaft m.b.H, priority 1994, dated 1998).

What was measured:
Format in all cases: physicochemical
[1] = Equilibrium of mitraphylline isomers in the two-phase system 1-octanol/water; conditions: for resulting equilibrium (water): aqueous phase; for resulting equilibrium (octanol): octanol phase
Description: (§1) Protonation of the alkaloid hinders partition into the solvent, but the dependence of the distribution coefficient on pH is different for each isomer due to their different basicity. When the isomerization takes place in such a two-phase system, the equilibrium obtained in the organic phase is different from that in the aqueous phase. As an example, the coefficients of distribution Ko/w of mitraphylline and isomitraphylline between 1-octanol and water at three pH values and the corresponding equilibria are given in table 6 (FIG.11). |Coefficients of distribution between 1-octanol and water KO/W for |mitraphylline and isomitraphylline and the resulting equilibria as a |function of pH at 25° C. (% per weight).

[2] = Effect of temperature and solvent on the equilibrium composition of the mitraphylline isomers
Description: The use of solvents with different polarity gave different equilibria, while other conditions were identical.

physchem = conditions: 1-octanol/water
Description: as §1

[3] = Effect of temperature and solvent on the equilibrium composition of the pteropodine isomers
Protocol: | Effect of temperature and solvent on the equilibrium composition | of the pteropodine isomers (temperature from 25 to | 50° C., % per weight) The use of solvents with different polarity gave different equilibria, while other conditions were identical.

[4] = Effect of temperature on the rate of isomerization of pteropodine; conditions: water, c=20 mg/l, 50 hours
Protocol: The effect of temperature on the rate of reaction was investigated. Pteropodine was dissolved in water (c=20 mg/l) and isomerized at various temperatures for 50 hours. The reactions were monitored (FIG. 9). An increase of temperature by 12° C. accelerated the reaction by a factor of 5.

[5] = Rate of isomerization of pteropodine in solvents and solvent mixtures; conditions: 50° C.; for rate coefficient of isomerization k: k = k12 + k13 + k14 from initial rate
Protocol: It is known from the literature that oxindole alkaloids undergo isomerization in polar solvents. Therefore hexafluoropropan-2-ol as a highly polar solvent was examined for its suitability as a medium for isomerization. A solution of pteropodine in hexafluoropropan-2-ol with a concentration of 18 mg/l was allowed to rest for 8 days at 20° C. Continually, samples were taken and analyzed. […] Pyridine has been reported to be a suitable solvent for the isomerization, although its polarity is very low. Our results confirmed this, but only when at least small portions of water were present. […] Important causes of solvent polarity are the dielectricity constant and the ability to form hydrogen bonds. The correlation of dielectricity and rate of reaction was investigated (table 1). | Correlation of the rate coefficient of isomerization of pteropodine and |dielectricity constant ε in pure solvents at 50° C.^a | ^a The rate coefficient k was determined from the initial rate of | isomerization of pteropodine and, therefore, is a composite coefficient k | = k12 + k13 + k14 and has the dimension [h^-1 ]. The | coefficient k12 describes the transformation of pteropodine to | isopteropodine, k13 to speciophylline and k14 to uncarine F, | respectively. […] But it was noticed that solvents with the ability to form hydrogen bonds, like formamide, water, glycerol or methanol, effect faster isomerization than solvents without this ability. […] Consequently, mixtures of solvents were produced from one part with a high dielectricity constant and another part with the ability to form hydrogen bonds as a proton donor. Mixtures of one part formamide and one part alcohol turned out to be suitable reaction media. Water is the only solvent which combines a high dielectricity constant with the ability to form hydrogen bonds to an extent which allows satisfactory reaction rates. However, oxindole alkaloids are practically insoluble in water. Thus, it is obvious to use suitable co-solvents.

[6] = Effect of pH on equilibrium and rate of isomerization; conditions: for dependence of isomer equilibrium mixture on pH: water-methanol 9:1, c=30 mg/l
Description: It is known from the literature (J. -L. Pousset, J. Poisson and M. Shamma, Bull.Soc.Chim. (1967), 2766) that oxindole alkaloids isomerize via a zwitterionic intermediate which is formed at the β-amino carboxyl system. There a double bond is formed between the amino nitrogen and the β-carbon, the bond between α and β-carbon is opened, and the spiro centre at the co-carbon becomes free for inversion (FIG. 2). […] The pH of a mixture of 9 parts of water and 1 part of methanol was adjusted to values from 2 to 9 by addition of phosphoric acid or sodium hydroxide, respectively. Pteropodine (c=30 mg/l) was isomerized in these solvents until the equilibrium was reached. […] The dependence of the pteropodine equilibrium on pH in pure water was investigated, too (FIG. 3b). […] (FIG. 4).

[7] = Isomerization of pteropodine in hexafluoropropan-2-ol; conditions: 18 mg/l, 8 days at 20° C.
Protocol: It is known from the literature that oxindole alkaloids undergo isomerization in polar solvents. Therefore hexafluoropropan-2-ol as a highly polar solvent was examined for its suitability as a medium for isomerization. A solution of pteropodine in hexafluoropropan-2-ol with a concentration of 18 mg/l was allowed to rest for 8 days at 20° C. Continually, samples were taken and analyzed. […] Pyridine has been reported to be a suitable solvent for the isomerization, although its polarity is very low. Our results confirmed this, but only when at least small portions of water were present. […] Important causes of solvent polarity are the dielectricity constant and the ability to form hydrogen bonds. The correlation of dielectricity and rate of reaction was investigated (table 1).

## COC(=O)C1=COC(C)C2CN3CCC4(C(=O)Nc5ccccc54)C3CC12 (stereo not drawn) [Isomitraphylline, isomitraphylline]
[1]; pH 3, 25° C.
  resulting equilibrium (water): 11.9 % per weight
  resulting equilibrium (octanol): 32.0 % per weight
[1]; pH 5, 25° C.
  resulting equilibrium (water): 0.5 % per weight
  resulting equilibrium (octanol): 93.9 % per weight
[1]; pH 7, 25° C.
  resulting equilibrium (water): 0.08 % per weight
  resulting equilibrium (octanol): 78.8 % per weight
[2]; 25° C., methanol
  equilibrium composition: 77.5 % per weight
[2]; 25° C., water
  equilibrium composition: 65.6 % per weight
[2]; 37° C., methanol
  equilibrium composition: 75.0 % per weight
[2]; 37° C., water
  equilibrium composition: 67.5 % per weight
[2]; 50° C., methanol
  equilibrium composition: 73.7 % per weight
[2]; 50° C., water
  equilibrium composition: 68.0 % per weight
physchem; pH 3
  log KO/W: 0.43
physchem; pH 5
  log KO/W: 2.3
physchem; pH 7
  log KO/W: 2.8

## COC(=O)C1=CO[C@@H](C)[C@@H]2CN3CC[C@@]4(C(=O)Nc5ccccc54)[C@@H]3C[C@H]12 [Isopteropodine, isopteropodine]
[3]; 25° C., methanol
  equilibrium composition: 75.4 % per weight
[3]; 25° C., water
  equilibrium composition: 60.9 % per weight
[3]; 37° C., methanol
  equilibrium composition: 75.5 % per weight
[3]; 37° C., water
  equilibrium composition: 59.6 % per weight
[3]; 50° C., methanol
  equilibrium composition: 73.5 % per weight
[3]; 50° C., water
  equilibrium composition: 59.4 % per weight

## COC(=O)C1=COC(C)C2CN3CCC4(C(=O)Nc5ccccc54)C3CC12 (stereo not drawn) [Mitraphylline, mitraphylline]
[1]; pH 3, 25° C.
  resulting equilibrium (water): 35.6 % per weight
  resulting equilibrium (octanol): 20.5 % per weight
[1]; pH 5, 25° C.
  resulting equilibrium (water): 1.0 % per weight
  resulting equilibrium (octanol): 4.6 % per weight
[1]; pH 7, 25° C.
  resulting equilibrium (water): 0.12 % per weight
  resulting equilibrium (octanol): 21.0 % per weight
[2]; 25° C., methanol
  equilibrium composition: 22.5 % per weight
[2]; 25° C., water
  equilibrium composition: 34.4 % per weight
[2]; 37° C., methanol
  equilibrium composition: 25.0 % per weight
[2]; 37° C., water
  equilibrium composition: 32.5 % per weight
[2]; 50° C., methanol
  equilibrium composition: 26.3 % per weight
[2]; 50° C., water
  equilibrium composition: 32.0 % per weight
physchem; pH 3
  log KO/W: -0.24
physchem; pH 5
  log KO/W: 0.67
physchem; pH 7, log KO/W
  logD: 2.5

## COC(=O)C1=COC(C)C2CN3CCC4(C(=O)Nc5ccccc54)C3CC12 (stereo not drawn) [Pteropodine, pteropodine]
[4]
  acceleration of the reaction by an increase of temperature by 12° C. (factor): 5
[3]; 25° C., methanol
  equilibrium composition: 22.9 % per weight
[3]; 25° C., water
  equilibrium composition: 29.6 % per weight
[3]; 37° C., methanol
  equilibrium composition: 22.6 % per weight
[3]; 37° C., water
  equilibrium composition: 29.8 % per weight
[3]; 50° C., methanol
  equilibrium composition: 23.5 % per weight
[3]; 50° C., water
  equilibrium composition: 29.6 % per weight
[5]; dimethyl sulfoxide
  rate coefficient of isomerization k: 0.00007 h⁻¹
[5]; dioxane
  rate coefficient of isomerization k: 0.0000004 h⁻¹
[5]; formamide
  rate coefficient of isomerization k: 0.005 h⁻¹
[5]; formamide-hexafluorpropan-2-ol (1:1)
  rate of isomerization k: 0.0037 h⁻¹
[5]; formamide-methanol (1:1)
  rate of isomerization k: 0.0050 h⁻¹
[5]; glycerol
  rate coefficient of isomerization k: 0.0072 h⁻¹
[5]; methanol
  rate coefficient of isomerization k: 0.0020 h⁻¹
[5]; methanol-dimethyl sulfoxide (1:1)
  rate of isomerization k: 0.0018 h⁻¹
[5]; methanol-dioxane (1:1)
  rate of isomerization k: 0.0024 h⁻¹
[5]; pyridine
  rate coefficient of isomerization k: 0.00002 h⁻¹
[5]; water
  rate coefficient of isomerization k: 1.11 h⁻¹
[5]; water-acetonitrile (1:1)
  rate of isomerization k: 0.042 h⁻¹
[5]; water-dioxane (1:1)
  rate of isomerization k: 0.0012 h⁻¹
[5]; water-formamide (1:1)
  rate of isomerization k: 0.067 h⁻¹
[5]; water-methanol (1:1)
  rate of isomerization k: 0.043 h⁻¹
[5]; water-pyridine (1:1)
  rate of isomerization k: 0.002 h⁻¹
[6]; acidic solutions
  dependence of isomer equilibrium mixture on pH: depended characteristically on the pH value
[6]; neutral or alkaline solutions
  dependence of isomer equilibrium mixture on pH: independent of pH in neutral or alkaline solutions
[6]; pH 2 to 9
  rate of reaction with increasing proton concentration: decreased with increasing proton concentration
[7]
  isomerization: No isomerization was observed

## COC(=O)C1=COC(C)C2CN3CCC4(C(=O)Nc5ccccc54)C3CC12 (stereo not drawn) [Speciophylline, speciophylline]
[3]; 25° C., methanol
  equilibrium composition: 0.4 % per weight
[3]; 25° C., water
  equilibrium composition: 4.3 % per weight
[3]; 37° C., methanol
  equilibrium composition: 0.5 % per weight
[3]; 37° C., water
  equilibrium composition: 4.5 % per weight
[3]; 50° C., methanol
  equilibrium composition: 1.0 % per weight
[3]; 50° C., water
  equilibrium composition: 4.6 % per weight

## COC(=O)C1=COC(C)C2CN3CCC4(C(=O)Nc5ccccc54)C3CC12 (stereo not drawn) [Uncarine F, uncarine F]
[3]; 25° C., methanol
  equilibrium composition: 1.3 % per weight
[3]; 25° C., water
  equilibrium composition: 5.2 % per weight
[3]; 37° C., methanol
  equilibrium composition: 1.4 % per weight
[3]; 37° C., water
  equilibrium composition: 6.1 % per weight
[3]; 50° C., methanol
  equilibrium composition: 2.0 % per weight
[3]; 50° C., water
  equilibrium composition: 6.4 % per weight
